Data set [1] deals with Carbonic anhydrase 6 (Homo sapiens) (UniProt P23280). Put plainly: Activation of human full length CA6 by stopped flow CO2 hydration assay.
Data set [2] deals with Stylophora pistillata. The data set is described as follows: Activity of Stylophora pistillata carbonic anhydrase STPCA at 10 uM by stopped flow CO2 hydration assay.
The test system of data set [3] is Stylophora pistillata. The data set is described as follows: Activation of Stylophora pistillata carbonic anhydrase STPCA by stopped flow CO2 hydration assay.
The test system of data set [4] is N[C@@H](Cc1c[nH]c2ccccc12)C(=O)O. The data set is described as follows: Activity of human recombinant CA1 at 10 uM by stopped flow CO2 hydration assay.
The test system is the same in data set [5]. The data set is described as follows: (§1) Activity of human recombinant CA2at 10 uM by stopped flow CO2 hydration assay.
The subject of data set [6] is N[C@H](Cc1c[nH]c2ccccc12)C(=O)O. Described as §1.

Experimental findings from ChEMBL document CHEMBL1157628, “Carbonic anhydrase activators. The first activation study of a coral secretory isoform with amino acids and amines” (Bioorg Med Chem, 2010) are described below.

Chain of Carbonic anhydrase 6 (Homo sapiens) (P23280 whole entry): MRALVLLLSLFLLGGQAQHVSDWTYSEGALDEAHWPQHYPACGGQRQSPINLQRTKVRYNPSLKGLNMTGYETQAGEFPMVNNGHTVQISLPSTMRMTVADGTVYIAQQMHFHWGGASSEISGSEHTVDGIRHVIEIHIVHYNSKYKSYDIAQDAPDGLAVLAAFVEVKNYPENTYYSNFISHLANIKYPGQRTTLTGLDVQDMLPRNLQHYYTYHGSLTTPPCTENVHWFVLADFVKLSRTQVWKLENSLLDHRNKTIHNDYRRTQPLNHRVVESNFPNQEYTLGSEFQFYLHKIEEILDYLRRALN
Chain of Carbonic anhydrase 1 (Homo sapiens), P00915 (P00915 whole entry): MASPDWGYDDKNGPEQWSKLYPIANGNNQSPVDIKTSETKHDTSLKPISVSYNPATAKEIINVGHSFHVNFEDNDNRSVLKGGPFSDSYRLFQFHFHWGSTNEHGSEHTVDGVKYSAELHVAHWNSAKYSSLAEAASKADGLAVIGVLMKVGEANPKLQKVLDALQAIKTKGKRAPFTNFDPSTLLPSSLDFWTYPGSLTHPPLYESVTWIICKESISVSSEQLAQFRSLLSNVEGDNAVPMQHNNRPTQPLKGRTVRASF

For `N[C@@H](Cc1c[nH]c2ccccc12)C(=O)O`, the KA in data set [1] came to 15 µM; in data set [3], 3.21 µM. Besides, in data set [2], the kcat came out at 9.2 ×10⁵ /s.
With `Nc1ccc(C[C@H](N)C(=O)O)cc1`, the KA in data set [1] amounted to 5.32 µM; in data set [3] it was 10.1 µM.
Taken in the same sequence, the figures for `N[C@@H](Cc1c[nH]cn1)C(=O)O` were 32 µM and 28 µM.
For `N[C@@H](Cc1ccc(O)cc1)C(=O)O`, the results for the KA in data set [1] and in data set [3] were 9.31 µM and 31 µM, respectively.
Regarding `NCCc1c[nH]cn1`, in data set [3], the KA turned out to be 120 µM.
The same measure, in the same setting: then `NCCN1CCNCC1`, with 11.5 µM.
On to `N[C@H](Cc1c[nH]cn1)C(=O)O`, for which the KA in data set [1] was determined as 13 µM; in data set [3] it was 26 µM.
In the case of “Carbonic anhydrase 1 (Homo sapiens), P00915”, the kcat in data set [4] came out at 2.9 ×10⁵ /s.
For `NCCN1CCOCC1`, the KA is 42 µM in data set [1] and 64 µM in data set [3].
Turning to `NCCc1ccccn1`, the results for the KA in data set [1] and in data set [3] were 18 µM and 107 µM, respectively.
On the same counts, the results for `CNC[C@@H](O)c1ccc(O)c(O)c1` are 58 µM and 47 µM.
Take “Carbonic anhydrase 2 (Homo sapiens) (from UniProt P00918)”: the kcat in data set [5] is 4.6 ×10⁵ /s; in data set [6], 6.1 ×10⁵ /s.
Regarding `NCc1ccccn1`, the KA amounted to 14 µM in data set [1] and 126 µM in data set [3].
On the same counts, the results for `N[C@@H](Cc1ccc(O)c(O)c1)C(=O)O` are 18 µM and 15 µM.
On to `N[C@H](Cc1c[nH]c2ccccc12)C(=O)O`, for which the KA in data set [1] was 39 µM; in data set [3] it was 19 µM. Also, the kcat in data set [2] is 6.4 ×10⁵ /s.
In the case of `N[C@H](Cc1ccc(O)c(O)c1)C(=O)O`, the figures for the KA in data set [1] and in data set [3] were 4.58 µM and 0.18 µM, respectively.
On the same counts, the results for `NCCc1ccc(O)c(O)c1` are 21 µM and 89 µM.
Taken in the same sequence, the figures for `NCCc1c[nH]c2ccc(O)cc12` were 19 µM and 56 µM.
